Earlier results as cited in patent US12442091B2, “Electrochemical dehydrogenation, epoxidation, substitution, and halogenation of hydrocarbons and hydrocarbon derivatives” (Wisconsin Alumni Research Foundation, priority 2020, dated 2025).
≈ marks a conversion by molar mass, not a printed value.

SMILES | solubility in water
C=CC [propene] | 384 µg/mL (≈ 9.13 mM)
CC(C)Br [2-bromopropane] | 3200 µg/mL (≈ 26 mM)
